Source: ChEMBL document CHEMBL4219183, “Novel purine benzimidazoles as antimicrobial agents by regulating ROS generation and targeting clinically resistant Staphylococcus aureus DNA groove” (Bioorg Med Chem Lett, 2018)
Converted amounts (≈) assume the structure as drawn.

Experiments:
Format in all cases: functional
Pseudomonas aeruginosa [1] = assay: Antibacterial activity against Pseudomonas aeruginosa ATCC 27853 after 24 hrs by two fold serial dilution method; conditions: ATCC 27853, 24 h
Klebsiella pneumoniae = assay: Antibacterial activity against Klebsiella pneumoniae after 24 hrs by two fold serial dilution method
Escherichia coli [2] = assay: Antibacterial activity against Escherichia coli after 24 hrs by two fold serial dilution method
Escherichia coli [3] = assay: Antibacterial activity against Escherichia coli ATCC 25922 after 24 hrs by two fold serial dilution method; conditions: ATCC 25922, 24 h
Candida albicans [4] = assay: Antifungal activity against Candida albicans after 24 hrs by two fold serial dilution method
Enterococcus faecalis = assay: Antibacterial activity against Enterococcus faecalis after 24 hrs by two fold serial dilution method
Staphylococcus aureus [5] = assay: Antibacterial activity against methicillin-resistant Staphylococcus aureus N315 after 24 hrs by two fold serial dilution method; conditions: N315, 24 h
Staphylococcus aureus [6] = assay: Antibacterial activity against Staphylococcus aureus after 24 hrs by two fold serial dilution method
Candida tropicalis = assay: Antifungal activity against Candida tropicalis after 24 hrs by two fold serial dilution method
Candida albicans [7] = assay: Antifungal activity against Candida albicans ATCC 90023 after 24 hrs by two fold serial dilution method; conditions: ATCC 90023, 24 h
Candida parapsilosis = assay: Antifungal activity against Candida parapsilosis ATCC 22019 after 24 hrs by two fold serial dilution method; conditions: ATCC 22019, 24 h
Staphylococcus aureus [8] = assay: Antibacterial activity against Staphylococcus aureus ATCC 25923 after 24 hrs by two fold serial dilution method; conditions: ATCC 25923, 24 h
Staphylococcus aureus [9] = assay: Antibacterial activity against Staphylococcus aureus ATCC 29213 after 24 hrs by two fold serial dilution method; conditions: ATCC 29213, 24 h
Aspergillus fumigatus = assay: Antifungal activity against Aspergillus fumigatus after 24 hrs by two fold serial dilution method
Pseudomonas aeruginosa [10] = assay: Antibacterial activity against Pseudomonas aeruginosa after 24 hrs by two fold serial dilution method
Acinetobacter baumannii = assay: Antibacterial activity against Acinetobacter baumannii after 24 hrs by two fold serial dilution method

For FC(F)(F)c1nc2ccccc2n1CCn1cnc2c(N3CCOCC3)ncnc21, the MIC (Pseudomonas aeruginosa [1]) was 64 µg/mL (≈ 153 µM), the MIC (Klebsiella pneumoniae) was 64 µg/mL (≈ 153 µM) and the MIC (Escherichia coli [2]) was 32 µg/mL (≈ 76.7 µM). It also gave an MIC (Escherichia coli [3]) of 128 µg/mL (≈ 307 µM), an MIC80 (Candida albicans [4]) of 256 µg/mL (≈ 613 µM) and an MIC (Enterococcus faecalis) of 64 µg/mL (≈ 153 µM). For the same compound, the MIC (Staphylococcus aureus [5]) was 256 µg/mL (≈ 613 µM), the MIC (Staphylococcus aureus [6]) was 32 µg/mL (≈ 76.7 µM) and the MIC80 (Candida tropicalis) was 256 µg/mL (≈ 613 µM). It also gave an MIC80 (Candida albicans [7]) of 256 µg/mL (≈ 613 µM), an MIC80 (Candida parapsilosis) of 128 µg/mL (≈ 307 µM) and an MIC (Staphylococcus aureus [8]) of 64 µg/mL (≈ 153 µM). It also gave an MIC (Staphylococcus aureus [9]) of 128 µg/mL (≈ 307 µM), an MIC80 (Aspergillus fumigatus) of 256 µg/mL (≈ 613 µM) and an MIC (Pseudomonas aeruginosa [10]) of 128 µg/mL (≈ 307 µM). It also gave an MIC (Acinetobacter baumannii) of 64 µg/mL (≈ 153 µM).

For OC(Cn1cncn1)(Cn1cncn1)c1ccc(F)cc1F [FLUCONAZOLE], the MIC80 (Candida albicans [4]) was 64 µg/mL (≈ 209 µM), the MIC80 (Candida tropicalis) was 256 µg/mL (≈ 836 µM) and the MIC80 (Candida albicans [7]) was 1 µg/mL (≈ 3.27 µM). The MIC80 (Candida parapsilosis) was 2 µg/mL (≈ 6.53 µM) and the MIC80 (Aspergillus fumigatus) was 256 µg/mL (≈ 836 µM).

Work on c1nc2nc[nH]c(N3CCCC3)c-2n1 yielded an MIC (Pseudomonas aeruginosa [1]) of 128 µg/mL (≈ 676 µM), an MIC (Klebsiella pneumoniae) of 512 µg/mL (≈ 2710 µM) and an MIC (Escherichia coli [2]) of 256 µg/mL (≈ 1350 µM). For the same compound, the MIC (Escherichia coli [3]) was 256 µg/mL (≈ 1350 µM), the MIC80 (Candida albicans [4]) was 128 µg/mL (≈ 676 µM) and the MIC (Enterococcus faecalis) was 512 µg/mL (≈ 2710 µM). It also gave an MIC (Staphylococcus aureus [5]) of 512 µg/mL (≈ 2710 µM), an MIC (Staphylococcus aureus [6]) of 64 µg/mL (≈ 338 µM) and an MIC80 (Candida tropicalis) of 128 µg/mL (≈ 676 µM). The MIC80 (Candida albicans [7]) was 256 µg/mL (≈ 1350 µM), the MIC80 (Candida parapsilosis) was 512 µg/mL (≈ 2710 µM) and the MIC (Staphylococcus aureus [8]) was 512 µg/mL (≈ 2710 µM). For the same compound, the MIC (Staphylococcus aureus [9]) was 512 µg/mL (≈ 2710 µM), the MIC80 (Aspergillus fumigatus) was 64 µg/mL (≈ 338 µM) and the MIC (Pseudomonas aeruginosa [10]) was 256 µg/mL (≈ 1350 µM). For the same compound, the MIC (Acinetobacter baumannii) was 256 µg/mL (≈ 1350 µM).

c1nc(N2CCCCC2)c2nc[nH]c2n1 was tested, and the MIC (Pseudomonas aeruginosa [1]) was 64 µg/mL (≈ 315 µM), the MIC (Klebsiella pneumoniae) was 256 µg/mL (≈ 1260 µM) and the MIC (Escherichia coli [2]) was 256 µg/mL (≈ 1260 µM). For the same compound, the MIC (Escherichia coli [3]) was 256 µg/mL (≈ 1260 µM), the MIC80 (Candida albicans [4]) was 128 µg/mL (≈ 630 µM) and the MIC (Enterococcus faecalis) was 256 µg/mL (≈ 1260 µM). It also gave an MIC (Staphylococcus aureus [5]) of 512 µg/mL (≈ 2520 µM), an MIC (Staphylococcus aureus [6]) of 32 µg/mL (≈ 157 µM) and an MIC80 (Candida tropicalis) of 256 µg/mL (≈ 1260 µM). For the same compound, the MIC80 (Candida albicans [7]) was 128 µg/mL (≈ 630 µM), the MIC80 (Candida parapsilosis) was 512 µg/mL (≈ 2520 µM) and the MIC (Staphylococcus aureus [8]) was 512 µg/mL (≈ 2520 µM). For the same compound, the MIC (Staphylococcus aureus [9]) was 512 µg/mL (≈ 2520 µM), the MIC80 (Aspergillus fumigatus) was 64 µg/mL (≈ 315 µM) and the MIC (Pseudomonas aeruginosa [10]) was 256 µg/mL (≈ 1260 µM). It also gave an MIC (Acinetobacter baumannii) of 128 µg/mL (≈ 630 µM).

C#CCn1c(Cn2cnc3c(N4CCOCC4)ncnc32)nc2ccccc21 showed an MIC (Pseudomonas aeruginosa [1]) of 128 µg/mL (≈ 343 µM), an MIC (Klebsiella pneumoniae) of 128 µg/mL (≈ 343 µM) and an MIC (Escherichia coli [2]) of 128 µg/mL (≈ 343 µM). For the same compound, the MIC (Escherichia coli [3]) was 512 µg/mL (≈ 1370 µM), the MIC80 (Candida albicans [4]) was 256 µg/mL (≈ 686 µM) and the MIC (Enterococcus faecalis) was 256 µg/mL (≈ 686 µM). It also gave an MIC (Staphylococcus aureus [5]) of 512 µg/mL (≈ 1370 µM), an MIC (Staphylococcus aureus [6]) of 128 µg/mL (≈ 343 µM) and an MIC80 (Candida tropicalis) of 128 µg/mL (≈ 343 µM). For the same compound, the MIC80 (Candida albicans [7]) was 256 µg/mL (≈ 686 µM), the MIC80 (Candida parapsilosis) was 256 µg/mL (≈ 686 µM) and the MIC (Staphylococcus aureus [8]) was 128 µg/mL (≈ 343 µM). The MIC (Staphylococcus aureus [9]) was 256 µg/mL (≈ 686 µM), the MIC80 (Aspergillus fumigatus) was 512 µg/mL (≈ 1370 µM) and the MIC (Pseudomonas aeruginosa [10]) was 256 µg/mL (≈ 686 µM). For the same compound, the MIC (Acinetobacter baumannii) was 256 µg/mL (≈ 686 µM).

For CCCCCCCCCCCCCCCCn1c(Cn2cnc3c(N4CCOCC4)ncnc32)nc2ccccc21, the MIC (Pseudomonas aeruginosa [1]) was 256 µg/mL (≈ 457 µM), the MIC (Klebsiella pneumoniae) was 128 µg/mL (≈ 229 µM) and the MIC (Escherichia coli [2]) was 512 µg/mL (≈ 915 µM). The MIC (Escherichia coli [3]) was 256 µg/mL (≈ 457 µM), the MIC80 (Candida albicans [4]) was 128 µg/mL (≈ 229 µM) and the MIC (Enterococcus faecalis) was 32 µg/mL (≈ 57.2 µM). For the same compound, the MIC (Staphylococcus aureus [5]) was 512 µg/mL (≈ 915 µM), the MIC (Staphylococcus aureus [6]) was 64 µg/mL (≈ 114 µM) and the MIC80 (Candida tropicalis) was 128 µg/mL (≈ 229 µM). It also gave an MIC80 (Candida albicans [7]) of 512 µg/mL (≈ 915 µM), an MIC80 (Candida parapsilosis) of 128 µg/mL (≈ 229 µM) and an MIC (Staphylococcus aureus [8]) of 256 µg/mL (≈ 457 µM). For the same compound, the MIC (Staphylococcus aureus [9]) was 256 µg/mL (≈ 457 µM), the MIC80 (Aspergillus fumigatus) was 256 µg/mL (≈ 457 µM) and the MIC (Pseudomonas aeruginosa [10]) was 512 µg/mL (≈ 915 µM). For the same compound, the MIC (Acinetobacter baumannii) was 256 µg/mL (≈ 457 µM).

For c1ccc2c(c1)ncn2CCn1cnc2c(N3CCOCC3)ncnc21, the MIC (Pseudomonas aeruginosa [1]) was 256 µg/mL (≈ 733 µM), the MIC (Klebsiella pneumoniae) was 256 µg/mL (≈ 733 µM) and the MIC (Escherichia coli [2]) was 256 µg/mL (≈ 733 µM). It also gave an MIC (Escherichia coli [3]) of 128 µg/mL (≈ 366 µM), an MIC80 (Candida albicans [4]) of 256 µg/mL (≈ 733 µM) and an MIC (Enterococcus faecalis) of 128 µg/mL (≈ 366 µM). For the same compound, the MIC (Staphylococcus aureus [5]) was 256 µg/mL (≈ 733 µM), the MIC (Staphylococcus aureus [6]) was 256 µg/mL (≈ 733 µM) and the MIC80 (Candida tropicalis) was 256 µg/mL (≈ 733 µM). The MIC80 (Candida albicans [7]) was 128 µg/mL (≈ 366 µM), the MIC80 (Candida parapsilosis) was 128 µg/mL (≈ 366 µM) and the MIC (Staphylococcus aureus [8]) was 256 µg/mL (≈ 733 µM). For the same compound, the MIC (Staphylococcus aureus [9]) was 256 µg/mL (≈ 733 µM), the MIC80 (Aspergillus fumigatus) was 256 µg/mL (≈ 733 µM) and the MIC (Pseudomonas aeruginosa [10]) was 128 µg/mL (≈ 366 µM). For the same compound, the MIC (Acinetobacter baumannii) was 256 µg/mL (≈ 733 µM).

Work on C=CCn1c(Cn2cnc3c(N4CCOCC4)ncnc32)nc2ccccc21 yielded an MIC (Pseudomonas aeruginosa [1]) of 128 µg/mL (≈ 341 µM), an MIC (Klebsiella pneumoniae) of 128 µg/mL (≈ 341 µM) and an MIC (Escherichia coli [2]) of 256 µg/mL (≈ 682 µM). The MIC (Escherichia coli [3]) was 256 µg/mL (≈ 682 µM), the MIC80 (Candida albicans [4]) was 512 µg/mL (≈ 1360 µM) and the MIC (Enterococcus faecalis) was 128 µg/mL (≈ 341 µM). It also gave an MIC (Staphylococcus aureus [5]) of 512 µg/mL (≈ 1360 µM), an MIC (Staphylococcus aureus [6]) of 256 µg/mL (≈ 682 µM) and an MIC80 (Candida tropicalis) of 256 µg/mL (≈ 682 µM). It also gave an MIC80 (Candida albicans [7]) of 128 µg/mL (≈ 341 µM), an MIC80 (Candida parapsilosis) of 32 µg/mL (≈ 85.2 µM) and an MIC (Staphylococcus aureus [8]) of 256 µg/mL (≈ 682 µM). The MIC (Staphylococcus aureus [9]) was 128 µg/mL (≈ 341 µM), the MIC80 (Aspergillus fumigatus) was 128 µg/mL (≈ 341 µM) and the MIC (Pseudomonas aeruginosa [10]) was 256 µg/mL (≈ 682 µM). For the same compound, the MIC (Acinetobacter baumannii) was 128 µg/mL (≈ 341 µM).
